This is an account of results in paper PMC12373846, “Hemoglobin as a pseudoperoxidase and drug target for oxidative stress-related diseases” (Signal Transduction and Targeted Therapy, 2025).

The subject of test [1] is APP/PS1 mice. Nature of the test: Immunohistochemistry of hippocampus, APP/PS1 mice. Type of test: in vivo, mouse. As for the experimental part: For an animal model of AD, both sexes of 10- to 18-month-old APP/PS1 mice were maintained and used as previously described.[76],[77] To test the effects of novel H2O2-decomposing enhancers in the AD model, the mice were treated by i.p. injection with KDS12008 (3 mg/kg/day), KDS12017 (3 mg/kg/day), or KDS12025 (3 or 10 mg/kg/day) once per day for 1 or 2 weeks, depending on the experimental protocol. All drugs were dissolved in 200 μl of saline, and the amount of each drug was calculated on the basis of the weight (kg) of the mouse. Moreover, KDS12025 (3 mg/kg/day) was orally administered to the AD model for 2 weeks ad libitum.
The mice were deeply anesthetized with vaporized 1% isoflurane and placed into stereotaxic frames (RWD Life Science, China). Following an incision on the midline of the scalp, a hole was drilled into the skull above the hippocampus. AAV-GFAP104-GFP or AAV-GFAP104-DTR-GFP was bilaterally microinjected into the hippocampal CA1 region (AP, −2.0 mm; ML, ±1.5 mm; DV, −1.65 mm from the bregma). Diphtheria toxin (2 mg/ml) was administered for 16 days as previously described.[77] For shRNA knockdown, AAV-pSicoR-Hbβ-shRNA-mCherry or AAV-pSicoR-Sc-shRNA-mCherry was microinjected into the same coordinate system. A total of 0.8 µl of the virus was injected via a syringe pump (KD Scientific, USA). The injection procedures were implemented before 5 weeks of the experiments. For cell type-specific knockdown, AAV-pSico-Hbβ-shRNA-GFP or AAV-pSico-Sc-shRNA-GFP was combined with either AAV-CaMKII-Cre-mCherry for neuronal targeting or AAV-GFAP-Cre-mCherry for astrocyte targeting. The viruses were bilaterally injected into the hippocampus and substantia nigra via the same stereotaxic coordinates and injection procedures. All viruses used in this study were produced at the Institute for Basic Science virus facility (IBS virus facility, Korea). To investigate the effects of 0.1 mg/kg/day KDS12025, GiD mice were injected with diphtheria toxin (2 mg/ml) daily for 16 days. Concurrently, KDS12025 was administered ad libitum (0.1 mg/kg/day) during the same period.
The mice were deeply anesthetized with 2% isoflurane and positioned on the operating table. After the abdomen was opened and the heart was exposed, the […] were perfused with saline, followed by 4% paraformaldehyde (PFA) in 0.1 M PBS. The mice were decapitated, and the brains were excised from the skull. Excised brains were postfixed in 4% PFA overnight at 4 °C and dehydrated in 30% sucrose for 48 h. Coronal hippocampal sections were cut at 30 µm thickness with a cryostat and stored in storage solution. For the ALS experiments, lumbar spinal cords (L2–L5) were also carefully dissected and immediately immersed in 4% PFA for postfixation. The sections were fully washed in 0.1 M PBS and incubated for 1 h in blocking solution (0.3% Triton X-100, 2% donkey and goat serum in 0.1 M PBS). Next, a mixture of primary antibodies in the blocking solution was used for immunostaining on a shaker overnight at 4 °C. The sections were washed in PBS three times. After washing, the sections were incubated with the corresponding fluorescent secondary antibodies for 1 h at RT. DAPI staining was performed by adding a DAPI solution (1:2000) during the second washing step. After the washing step was complete, the sections were mounted on cover slides with mounting medium. A series of fluorescence images were obtained with an LSM900 (Zeiss, Germany) confocal microscope or Lattice SIM Elyra 7 (Zeiss, Germany). The 15–22 μm Z stack images in 1–2 μm steps were processed for image analysis, which was performed via the ImageJ (NIH, US) and ZEN digital imaging for light microscopy blue system (Zeiss, Germany) programs.

Test [2] addresses T1, Hb (Homo sapiens, UniProt P68871).
T1 construct: purchased Sigma-Aldrich H7379
Nature of the test: ROS-Glo H2O2 assay with Hb. Type of test: biochemical. To be noted: for remaining H2O2 normalized to no Hb: Fig. 2d. As for the experimental part: Hb (Sigma‒Aldrich, H7379), H2O2 (Sigma‒Aldrich, H1009), and Amplex Red reagents (Invitrogen, A12222) were obtained for the study. A 4 μM H2O2 solution was prepared in 50 mM sodium phosphate buffer (pH 7.2). Then, 49 μl of this mixture was mixed with 1 μl of the test compound in DMSO or distilled water. The mixture was combined with an assay mixture of Amplex Red reagent (20 mM stock to 0.1 mM) and HRP (200 U/ml stock to 0.2 U/ml) and added to the wells at 50 μl/well. After a 60-min incubation at 37 °C, resorufin production was quantified via a microplate fluorescence reader (SpectraMax iD5, Molecular Devices) at ex/em = 535/580 nm. […] For the ROS-Glo assay, the H2O2 substrate solution and ROS-Glo detection solution were prepared according to the manufacturer’s instructions. 10 μM H2O2 and drugs were prepared as in the Amplex Red assay, with HRP, Hb, CAT, or GPx added as needed. The mixture was added to the wells at 100 μl/well and incubated for 60 min at 37 °C. H2O2 substrate solution was added, and the mixture was incubated at room temperature for 30 min. After the H2O2 substrate solution was added and incubated at room temperature for 30 min, the ROS-Glo detection solution was added, and the mixture was incubated for 15 min. Luminescence was measured via iD5 microplate readers. […] The U/ml was calculated on the basis of the amount of H2O2 reduced by Hb during the reaction, using μg/ml and U/mg.
To evaluate the extent of peroxidase function facilitation by HTPEB (1 μM) and KDS12025 (1 μM) in HRP (0.2 U/ml) and Hb (10 μg/ml), we used the ROS-Glo assay over 30 and 60 min. The fold change was calculated by dividing the delta values during the 30-min reaction for the vehicle over drug conditions.
To assess enzyme activity, the amount of H2O2 consumed over a specific time was quantified alongside a standard curve. For the peroxidase function of Hb, Hb was administered at doses ranging from 0.01 to 112 U/ml and preincubated with H2O2 and either DMSO, HTPEB (1 μM), or KDS12025 (1 μM) at 37 °C for 30 min. The remaining H2O2 was measured via the ROS-Glo assay and normalized against conditions without Hb. The dose‒response curve, EC50, and EC20 for H2O2 decomposition were calculated and determined by fitting the data with GraphPad Prism software. The fitting method had no special handling of outliers, and least squares regression with confidence intervals of the parameters was 95%.

pEC50: −log10 of the molar value. Read-outs that look alike come from different tables or passages of the source.

T1 sequence (P68871 2-147 limits assumed): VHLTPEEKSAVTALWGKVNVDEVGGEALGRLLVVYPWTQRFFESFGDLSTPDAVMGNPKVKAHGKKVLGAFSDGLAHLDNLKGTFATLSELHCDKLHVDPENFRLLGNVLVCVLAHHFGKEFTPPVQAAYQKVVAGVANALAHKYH
T1 sequence (P69905 2-142 partner limits assumed): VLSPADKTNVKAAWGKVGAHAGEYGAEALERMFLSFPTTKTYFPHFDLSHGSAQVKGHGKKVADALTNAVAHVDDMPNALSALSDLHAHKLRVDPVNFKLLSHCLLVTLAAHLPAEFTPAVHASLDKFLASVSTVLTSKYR

In the case of `CNc1ccc(NCCc2ccccc2OC)cc1.Cl` [KDS12025, N^1-(2-methoxyphenethyl)-N^4-methylbenzene-1,4-diamine hydrochloride salt], the “Sholl analysis, number of intersections” value in test [1] (APP+shHbβ+KDS12025, Fig. S16g) is given as 5.314±0.9626. Also, the “Hbβ intensity in GFAP-positive areas” value worked out at 110.5±1.59 in test [1] (APP+shHbβ::CaMKII+KDS12025, Fig. 6m) and 87.46±1.26 in test [1] (APP+shHbβ::GFAP+KDS12025, Fig. 6m). The GFAP-positive area in test [1] (APP+shHbβ::CaMKII+KDS12025, Fig. 6n) was 55.98±5.45; in test [1] (APP+shHbβ::GFAP+KDS12025, Fig. 6n), 134.3±10.91. In addition, the GFAP intensity is 131.4±3.56 in test [1] (APP+shHbβ::CaMKII+KDS12025, Fig. 6o) and 152.1±5.50 in test [1] (APP+shHbβ::GFAP+KDS12025, Fig. 6o). For the same compound, the “Sholl analysis, sum of intersections” value in test [1] (APP+shHbβ::CaMKII+KDS12025, Fig. S17b) is on record as 42.1±3.9; in test [1] (APP+shHbβ::GFAP+KDS12025, Fig. S17b), 57.9±3.7. The “Sholl analysis, ending radius” value in test [1] (APP+shHbβ::CaMKII+KDS12025, Fig. S17c) was found to be 80.3±6.8; in test [1] (APP+shHbβ::GFAP+KDS12025, Fig. S17c), 109.8±5.4. In addition, in test [2], the “enhancement of Hb pseudoperoxidase activity” value is 100 fold. Moreover, the pEC50 in test [2] (Fig. S1f, read-out: EC50, H2O2 decomposition with human hemoglobin (hHb)) was 7.48; in test [2] (Tables S2, S3, read-out: HB-EC50), 7.35; in test [2] (in the presence of Hb, Fig. 1h, read-out: EC50 with Hb (H2O2 decomposition)) it was 7.40. Moreover, the “remaining H2O2 normalized to no Hb” value amounted to 82.57±2.025 in test [2] (Hb 0.01 U/ml), 75.36±1.113 in test [2] (Hb 0.1 U/ml) and 62.38±2.923 in test [2] (Hb 1 U/ml). The “H2O2 decomposition at extremely low Hb” value in test [2] (Hb 0.04 U/ml, 0.03 μg/ml) is “up to 20%”. Moreover, the “fold change in H2O2 decomposition (Hb pseudoperoxidase activity per 0.5 h)” value in test [2] (Hb, 30-min window, Fig. 2b) was found to be 5.676±0.6374 fold. For the same compound, the “potency relative to HTPEB” value in test [2] (ratio of EC50 with Hb) is ~ 4 fold. In addition, the “fold decrease of Hb EC20 for H2O2 decomposition” value in test [2] (vs Hb alone, Fig. 2e) came out at 98 fold. Besides, the “fold decrease of Hb EC50 for H2O2 decomposition” value in test [2] (vs Hb alone, Fig. 2e) is on record as 4.7 fold.

By pEC50 is commonly meant the negative decadic logarithm of the EC50, by convention in mol/L.
